The results in this text go back to patent US10647725B2, “Anti-infective 2-aminothiophenes” (priority 2016, dated 2020).

The structures appear in SMILES notation. In brackets after ≈: the same amount, converted by molar mass.

The test deals with Mtb strains INH-R1, INH-R2, RIF-R1, RIF-R2, FQ-R1. The experiment in a line: microbe, parasite or virus in culture. The class given is cell-based. Conditions: Mycobacterium tuberculosis; read-out: MIC against resistant isolates.

As to `CCOC(=O)c1c(NC(=O)c2c(F)c(F)c(F)c(F)c2F)sc2c1CCN(CC)C2` [4{3,3,0}, ethyl 6-ethyl-2-(perfluorobenzamido)-4,5,6,7-tetrahydrothieno[2,3-c]pyridine-3-carboxylate], the MIC was 0.2 to 0.44 µM (≈ 0.0897 to 0.197 µg/mL).
